Reference: patent publication US8501238B2, “Anti-infective agents and uses thereof” (priority 2007, dated 2013)

Legend:
[1] = tested on: genotype 1b-Con1 subgenomic replicon cell line; experiment: microbe, parasite or virus in culture; type: cell-based, HCV; details: Hepatitis C virus, 72 h, read-out: EC50 1b
[2] = biological target: T1, HCV polymerase 1B (Δ21 NS5B) (Hepatitis C virus genotype 1b, UniProt P26663); experiment: biochemical
T1 construct: 20 to 50nM Δ21 NS5B
In short: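 Inhibitor pre-incubated 15 min at room temperature with Δ21 NS5B (strain BK or H77, 20–50 nM), 60–125 μM GTP, 2 mM MnCl2, pH 7.4. Reaction started with 20 μM CTP, 20 μM ATP, 1 μM 3H-UTP and 5 nM template RNA, run 2–4 h at room temperature. Spermine-precipitated RNA filter-captured and scintillation-counted; IC50 from tight-binding equation fit.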

[3] = tested on: genotype 1a-H77 subgenomic replicon cell line; experiment: microbe, parasite or virus in culture; type: cell-based, HCV; details: Hepatitis C virus, 72 h, read-out: EC50 1a
[4] = biological target: T2, HCV polymerase 1A (Δ21 NS5B) (Hepatitis C virus genotype 1a, UniProt P27958); experiment: HCV Polymerase Inhibition Assay (1a); type: biochemical
T2 construct: 20 to 50nM Δ21 NS5B
T2 sequence (P27958 2421-2990, stated change not applied): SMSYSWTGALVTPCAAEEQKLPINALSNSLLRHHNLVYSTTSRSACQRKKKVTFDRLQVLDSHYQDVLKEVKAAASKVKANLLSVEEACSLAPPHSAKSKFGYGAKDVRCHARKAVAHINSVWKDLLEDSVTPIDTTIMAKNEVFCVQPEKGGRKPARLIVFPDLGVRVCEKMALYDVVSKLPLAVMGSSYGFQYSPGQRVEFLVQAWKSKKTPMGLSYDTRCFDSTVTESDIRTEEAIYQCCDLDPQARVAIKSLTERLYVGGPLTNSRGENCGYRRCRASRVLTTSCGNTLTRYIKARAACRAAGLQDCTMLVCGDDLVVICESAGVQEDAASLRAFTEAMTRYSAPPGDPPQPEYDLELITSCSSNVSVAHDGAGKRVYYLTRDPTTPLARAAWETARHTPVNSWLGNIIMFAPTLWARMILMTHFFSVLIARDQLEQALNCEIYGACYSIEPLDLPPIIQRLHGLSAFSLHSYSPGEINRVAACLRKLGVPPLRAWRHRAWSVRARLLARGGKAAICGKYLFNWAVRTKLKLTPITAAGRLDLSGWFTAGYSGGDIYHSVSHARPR
In short: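 Δ21 NS5B reactions contained 20 μM CTP, 20 μM ATP, 1 μM ³H-UTP and 5 nM template RNA and ran for 2–4 h at room temperature. RNA was then spermine-precipitated, filter-captured and counted by scintillation. IC50 came from a tight-binding (Morrison) nonlinear fit of retained cpm against inhibitor concentration.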

T1 sequence (P26663 2420-2989, stated change not applied): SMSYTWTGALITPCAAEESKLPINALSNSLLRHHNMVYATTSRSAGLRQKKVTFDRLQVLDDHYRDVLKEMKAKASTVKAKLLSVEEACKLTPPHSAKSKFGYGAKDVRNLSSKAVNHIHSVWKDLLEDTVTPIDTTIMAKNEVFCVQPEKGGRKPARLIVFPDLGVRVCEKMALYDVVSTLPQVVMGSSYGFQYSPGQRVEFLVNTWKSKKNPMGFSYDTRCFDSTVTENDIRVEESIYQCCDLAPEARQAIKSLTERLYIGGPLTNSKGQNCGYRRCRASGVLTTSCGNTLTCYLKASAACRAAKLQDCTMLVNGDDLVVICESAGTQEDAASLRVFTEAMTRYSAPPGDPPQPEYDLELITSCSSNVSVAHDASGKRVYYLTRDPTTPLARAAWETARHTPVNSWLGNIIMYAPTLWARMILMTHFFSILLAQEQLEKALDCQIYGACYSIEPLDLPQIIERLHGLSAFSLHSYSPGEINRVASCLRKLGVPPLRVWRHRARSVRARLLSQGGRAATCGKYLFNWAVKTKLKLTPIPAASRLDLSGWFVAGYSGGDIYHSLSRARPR

SMILES | EC50 [1] | IC50 [2] | EC50 [3] | melting point | IC50 [4]
CC(C)(C)c1cc(-n2ccc(=O)[nH]c2=O)cc(-c2ccc3cc(NS(C)(=O)=O)ccc3c2)c1Cl [IB-L0-2.14, N-(6-(3-tert-butyl-2-chloro-5-(2,4-dioxo-3,4-dihydropyrimidin-1(2H)-yl)phenyl)naphthalen-2-yl)methanesulfonamide] | 10 to 100 nM | < 10 nM | 100 to 1000 nM | > 280 °C | < 10 nM
COc1c(-c2ccc3cc(NS(C)(=O)=O)ccc3c2)cc(-n2ccc(=O)[nH]c2=O)cc1-c1ccc(C)o1 [IB-L0-2.58, N-(6-(5-(2,4-dioxo-3,4-dihydropyrimidin-1(2H)-yl)-2-methoxy-3-(5-methylfuran-2-yl)phenyl)naphthalen-2-yl)methanesulfonamide] | < 10 nM | 10 to 100 nM | 10 to 100 nM | 174 to 178 °C | < 10 nM
COc1c(-c2ccc3cc(NS(C)(=O)=O)ccc3c2)cc(-n2ccc(=O)[nH]c2=O)cc1C(C)(C)CO [IB-L0-2.54, N-(6-(5-(2,4-dioxo-3,4-dihydropyrimidin-1(2H)-yl)-3-(1-hydroxy-2-methylpropan-2-yl)-2-methoxyphenyl)naphthalen-2-yl)methanesulfonamide] | 10 to 100 nM | 10 to 100 nM | 10 to 100 nM | 256 to 257 °C | < 10 nM
